# PMC7356228, “Alvaxanthone, a Thymidylate Synthase Inhibitor with Nematocidal and Tumoricidal Activities” (Molecules, 2020)
# Like-named read-outs stand apart in the source and are kept apart here.
# What was measured:
# TsTS = TsTS (Trichinella spiralis, UniProt Q9NDD3); assay: Inhibition of TS-catalyzed reaction (tritium release from [5-3H]dUMP); assay type: biochemical, T. spiralis; details: for remaining activity at 10 µM: compound 10 µM; for remaining activity at 10 µM / remaining activity at 100 µM: 20 µM dUMP; for remaining activity at 100 µM: compound 100 µM
# Text: The recombinant human, rat, mouse, T. spiralis and C. elegans TS proteins were produced, purified and separated into phosphorylated and non-phosphorylated fraction, as previously described. TS activity was monitored, following tritium release from [5-^3H]dUMP, and its inhibition studied as earlier reported.
# SCC-15 cells = assay: Proliferation (CyQUANT GR, total cellular DNA content); assay type: cell-based, human; details: 40 μM, 72 h, BJ vs SCC-15
# Method: (§1) The influence of alvaxanthone and rheediaxanthone B on cell proliferation (Figure 2) was assessed by quantitative measurement of the total cellular DNA content, proportional to the cell number.
# (§2) Figure 2 Proliferation of cancer (U-118 MG and SCC-15) and normal (BJ) cells after 72 h incubation with 5–40 μM alvaxanthone or 1.25–40 μM rheediaxanthone B, determined with the CyQUANT GR Cell Proliferation Assay Kit. Median results are presented of three independent experiments, each performed in triplicate. The whiskers are lower (25%) and upper (75%) quartile ranges. […] Images collected with Olympus IX-83 microscope with contrast phase (scale bar = 100 µm).
# (§3) Influence of selected compounds on cells was tested by performing the cytotoxicity (NR and XTT) assays, proliferation assay, cell adhesion assay, cell migration assay, determination of intracellular ATP level, and apoptosis assay as previously reported.
# U-118 MG cells = assay: as above; assay type: cell-based, human; details: 40 μM, 72 h, BJ vs U-118 MG
# Method: as §1, §2, §3
# [1] = system: SCC-15 human squamous carcinoma cells; assay: Cytotoxicity, neutral red uptake (NR) assay; assay type: cell-based; details: for IC50: read-out: IC50
# Method: (§4) Biological effect of alvaxanthone and rheediaxanthone B on normal (BJ) and cancer cells (U-118 MG and SCC-15) was estimated using two viability assays, the neutral red uptake (NR) and tetrazolium salts reduction (XTT) assays.
# (§5) Human glioblastoma cells U-118 MG (ATCC® HTB-15), human squamous carcinoma cells SCC-15 (ATCC® CRL-1623), and normal human skin fibroblasts (ATCC® CRL-2522) were grown, their morphology checked, and number and viability estimated as earlier presented.
# as §3
# [2] = system: U-118 MG human glioblastoma cells; assay: Cytotoxicity, neutral red uptake (NR) assay; assay type: cell-based; details: U-118 MG
# Method: as §4, §5, §3
# [3] = system: caspases 3/7 in BJ, U-118 MG, and SCC-15 cells; assay: Apo-ONE Homogenous Caspase-3/7 Assay; assay type: cell-based, human; details: 48 h, 5–40 µM, span over the three cell lines
# Method: Figure 4 Changes of caspase-3/7 activities and intracellular ATP level in BJ, U-118 MG, and SCC-15 cells after 48-h incubation with 5–40 µM alvaxanthone or rheediaxanthone B. Median results are presented of three independent experiments, each performed in triplicate. The whiskers are lower (25%) and upper (75%) quartile ranges.
# The Apo-ONE® Homogenous Caspase-3/7 Assay provides a measurement of the executioner caspases 3/7 activation, characteristic for apoptosis induced via both the intrinsic and extrinsic pathway. It was used to determine apoptosis induction in cells by alvaxanthone and rheediaxanthone B. In each of the three cell lines, compared to the respective non-treated control, treatment with each of the two compounds for 48 h led to a significant activation of the caspases 3/7 (by 2- to 10-fold for alvaxanthone and 8- to 18-fold for rheediaxanthone B), the effect being stronger in cancer than normal cells (Figure 4).
# as §3
# [4] = system: normal human gingival fibroblasts (HGF); design: method as in Hou et al. [41]; details: 24 h incubation; ref Hou et al. [41]; cited from earlier work
# TsTS, sequence (Q9NDD3 entry or part of it): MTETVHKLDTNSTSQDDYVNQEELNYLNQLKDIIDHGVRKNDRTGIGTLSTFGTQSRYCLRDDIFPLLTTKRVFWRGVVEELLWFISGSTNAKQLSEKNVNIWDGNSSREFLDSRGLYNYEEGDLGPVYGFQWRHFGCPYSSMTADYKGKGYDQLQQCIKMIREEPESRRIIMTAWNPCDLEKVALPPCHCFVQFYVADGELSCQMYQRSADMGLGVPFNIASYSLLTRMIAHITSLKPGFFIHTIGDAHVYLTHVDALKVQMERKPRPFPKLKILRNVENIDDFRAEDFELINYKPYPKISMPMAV
smiles,measurement,setting,value
"C=CC(C)(C)c1c(O)cc2oc3c(O)c(O)cc(CC=C(C)C)c3c(=O)c2c1O [Alvaxanthone (15), Alvaxanthone]",IC50,"TsTS; IC50, 20 µM dUMP and 50 µM meTHF, mean ± S.E.M. (N=3) for alvaxanthone, rheediaxanthone B not repeated",41.9 ± 8.1 µM
same,remaining activity at 10 µM,TsTS; 50 µM meTHF,97%
same,remaining activity at 10 µM,TsTS; 250 µM meTHF,98%
same,remaining activity at 100 µM,TsTS; 50 µM meTHF,14%
same,remaining activity at 100 µM,TsTS; 250 µM meTHF,47%
same,proliferation inhibition weaker with normal (BJ) than cancer cells,SCC-15 cells,5.8 fold
same,proliferation inhibition weaker with normal (BJ) than cancer cells,U-118 MG cells,2.3 fold
same,viability at 40 µM,"[1]; Homo sapiens, NR assay, 40 µM, 48 h",1.5%
same,IC50,"[1]; Homo sapiens, SCC-15, neutral red assay",17 µM
same,IC50,[1]; neutral red assay,17.7 µM
same,viability at 40 µM,"[2]; NR assay, 40 µM, 48 h",10%
same,IC50,"[2]; neutral red assay, read-out: IC50",13.1 µM
same,activation of the caspases 3/7 compared to non-treated control,[3],2- to 10 fold
same,IC50,[4],25 µM
